Our source for the TGI and GI50 values is PubChem BioAssay (NCI).

Common to all, as to assay: DTP human tumour cell line panel, 48 h
In assay [1] the test system is TK-10 renal.
Assay [2] concerns M14 melanoma.
Assay [3] has as its system HCC-2998 colon.
Assay [4] deals with A549 NSCLC.
The test system of assay [5] is KM12 colon.
The test system of assay [6] is SK-OV-3 ovarian.
In assay [7] the test system is HCT-15 colon.
The subject of assay [8] is UO-31 renal.
Assay [9] deals with MDA-MB-231 breast.
Assay [10] relates to SR leukemia.

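Test compounds were applied to cells in 96-well plates for 48 hours at 5 doses. GI50 marks 50% less growth. TGI denotes the concentration required for complete inhibition of growth.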 Where a SMILES comes first, the peptide text is derived from it. The star is where a group is joined. Boc = CC(C)(C)OC(=O)*; OtBu = CC(C)(C)O*

Broadly, the TGI is the concentration at which net growth stops. Higher therefore signals lower sensitivity of the cells. As for `CC(C)c1cc(C(C)C)c(S(=O)(=O)N/N=C2\CC3CCC2(C)C3(C)C)c(C(C)C)c1` (centres undefined), the concentration for total growth inhibition (TGI) in assay [1], in assay [2], in assay [3], in assay [4], in [5] and in assay [6] was greater than 100 µM each time. The TGI in assay [7], in [8] and in [9] was greater than 100 µM each time.
With `N#CC(NNC(=O)c1ccccc1O)c1ccccc1O` (centres undefined), the TGI is greater than 100 µM in assay [1]; 29.7 µM in [2]; greater than 100 µM in assay [10]; greater than 100 µM in [4]; greater than 100 µM in assay [5]; greater than 100 µM in assay [6]. For the same compound, the TGI is greater than 100 µM in assay [7] and 48.4 µM in assay [8].
For the compound `Nc1ccc(Oc2ccc(C3(c4ccc(Oc5ccc(N)c(O)c5)cc4)C4CC5CC(C4)CC3C5)cc2)cc1O`, the TGI in [1] was determined as 4.54 µM; in assay [2], 3.18 µM; in assay [10], 3.11 µM; in [3], 3.01 µM; in assay [4], 3.14 µM; in [5], 4.59 µM. For the same compound, the TGI in assay [6] was 7.1 µM; in [8] it was 3.82 µM.
In general, GI50 refers to the concentration giving 50% growth inhibition. With `O[C@@H]1CCCCN1Cc1cc2cc3c(cc2c2cc(OCc4ccccc4)ccc12)OCO3`, the GI50 in [1] was 2.08 µM; in assay [2] it was 1.59 µM; in assay [3], 0.509 µM; in assay [4] it was 1.62 µM; in assay [5], 1.59 µM; in assay [6], 1.64 µM. In addition, the results for the GI50 in [7], in assay [8] and in [9] were 1.81 µM, 1.53 µM and 1.75 µM, respectively. The TGI worked out at 4.05 µM in assay [1]; 2.96 µM in assay [2]; 1.83 µM in assay [3]; 3.31 µM in assay [4]; 3.16 µM in assay [5]; 3.39 µM in assay [6]. In addition, the TGI was found to be 4.37 µM in assay [7], 2.89 µM in assay [8] and 3.33 µM in assay [9].
Take `COC(=O)C#CC1(O)C=CC(=O)C=C1`: the TGI in assay [1] was 5.22 µM; in assay [2] it was 12.1 µM; in assay [10], 15.2 µM; in assay [3], 8.15 µM; in assay [4] it was greater than 48.1 µM; in [5], 2.3 µM. The TGI in assay [6] was greater than 100 µM; in assay [7], 4.32 µM; in assay [8], 10.6 µM.
In the case of `CC(C)(C)OC(=O)CC(NC(=O)OC(C)(C)C)C(=O)NC(Cc1ccccc1)C(N)=O` (centres undefined) (Boc-Asp(OtBu)-Phe-NH2; configuration not given here), the TGI in [1], in [2], in assay [4], in [5], in assay [6] and in assay [7] was greater than 100 µM throughout. Further, the concentration for total growth inhibition (TGI) in assay [8] and in assay [9] was greater than 100 µM in each case.
Regarding `CN(C)CCC(C#N)(c1ccccc1)c1ccccc1`, the TGI in assay [1] was greater than 100 µM; in assay [2], 50 µM; in assay [3], 34.1 µM; in assay [4] it was greater than 100 µM; in assay [5], greater than 100 µM; in assay [6], greater than 100 µM. Also, the TGI in assay [7], in [8] and in [9] was greater than 100 µM each time.
As for `N#CC(C#N)=CNC(=S)Nc1ccc(S(=O)(=O)Nc2nccs2)cc1`, the TGI in assay [1], in assay [2], in assay [3], in assay [4], in [5] and in assay [6] was greater than 100 µM throughout. Also, the TGI in assay [7], in [8] and in assay [9] was greater than 100 µM throughout.
Consider `O=[N+]([O-])c1ccc(-c2ccc([C@H]3CC(c4cc(F)c(Cl)cc4Cl)=NN3)o2)cc1`, for which the TGI was greater than 100 µM in [1]; greater than 100 µM in assay [2]; 77.1 µM in [10]; 38.7 µM in [3]; greater than 100 µM in assay [5]; greater than 100 µM in assay [6]. For the same compound, the TGI in [7] and in assay [8] was greater than 100 µM each time.
On to `CSc1cnc2ccccc2c1Sc1cn(C)c2ccccc2c1=O`, for which the TGI in assay [1], in [2], in assay [10], in assay [3], in assay [4] and in [5] was greater than 100 µM throughout. In addition, the TGI in assay [6] is 44.5 µM; in [7], greater than 100 µM; in [8] it was greater than 100 µM.
Take `CC(C)C1CC(CO)(CNc2nc(N)nc(Cl)c2C=O)C1` (centres undefined): the total growth inhibition concentration (TGI) is greater than 100 µM in [1]; 3.24 µM in assay [2]; 4.32 µM in assay [3]; 31.4 µM in assay [4]; greater than 46.7 µM in [5]; 61.7 µM in assay [6]. In addition, the results for the TGI in [7], in assay [8] and in [9] were 32.1 µM, 13 µM and 5.14 µM, respectively.
`Nc1cc2c(C3OC(CO)C(O)C3O)[nH]nc2c(=S)[nH]1` (centres undefined): the TGI in [2], in assay [10], in assay [3], in [4], in [5] and in assay [6] was greater than 100 µM in each case. The TGI in [7] and in assay [8] was greater than 100 µM throughout.
Turning to `COc1cc(N(CCC#N)CCC#N)ccc1/C(N=Nc1cccc([N+](=O)[O-])c1)=N\NC(=O)c1ccc(C)cc1`, the TGI in [1], in [2], in assay [3], in [4], in assay [5] and in assay [6] was greater than 100 µM throughout. The TGI in assay [7], in assay [8] and in assay [9] was greater than 100 µM throughout.
As to `CS(=O)(=O)Sc1ccc(Cl)cc1`, the TGI in assay [1] stood at 31.2 µM; in [2], 25.8 µM; in assay [10] it was 15.7 µM; in [3], 24 µM; in [4], 17.5 µM; in assay [5], 19.7 µM. For the same compound, the figures for the TGI in assay [6], in assay [7] and in assay [8] were 43.9 µM, 22.2 µM and 13.3 µM, respectively.
With `O=c1cc(O)c1=O`, the TGI in assay [1], in assay [2], in assay [10], in [3], in [4] and in [5] was greater than 100 µM in each case. The TGI in assay [6], in [7] and in [8] was greater than 100 µM throughout.
On to `COc1ccc(CC(COS(=O)(=O)c2ccc(C)cc2)NS(=O)(=O)c2ccc(C)cc2)cc1` (centres undefined), for which the TGI in assay [1] is 43.6 µM; in [2], 29.6 µM; in assay [3], 29.5 µM; in assay [4], greater than 62.2 µM; in [5], greater than 77 µM; in assay [6] it was 43.7 µM. Further, the values for the TGI in [7], in [8] and in assay [9] were 41.1 µM, 40.2 µM and greater than 84.5 µM, respectively.
In the case of `C/C(=C/C(=O)N(C)c1ccccc1Cl)O[Si](C(C)C)(C(C)C)C(C)C`, the total growth inhibition concentration (TGI) is greater than 100 µM in [1]; 70.9 µM in [2]; greater than 100 µM in [4]; greater than 100 µM in assay [5]; greater than 100 µM in [6]; 37.1 µM in assay [7]. The TGI is 39.3 µM in assay [8] and 50.1 µM in assay [9].
As for `O=c1[nH]c2ccccc2c(=O)c2cc3ccccc3cc12`, the TGI in assay [1] was 37 µM; in assay [2], greater than 100 µM; in assay [3], greater than 100 µM; in [4], greater than 100 µM; in assay [5], greater than 100 µM; in assay [6], 30.6 µM. Besides, the TGI in assay [7] was greater than 100 µM; in assay [8] it was greater than 100 µM; in [9], 22 µM.
As for `CSc1ccc(/C=C2\N=C(c3ccccc3)N(NC(=O)c3c(Cl)c(Cl)c(Cl)c(Cl)c3-c3nc4ccccc4[nH]3)C2=O)cc1`, the TGI in assay [2] was greater than 100 µM; in assay [10], greater than 100 µM; in assay [3] it was 39.3 µM; in assay [4] it was greater than 100 µM; in [5], 65.6 µM; in assay [6], greater than 100 µM. The TGI in assay [7] and in assay [8] was greater than 100 µM throughout.
Regarding `COc1ccc(N(c2ccc(C#N)cc2)c2ccc(C#N)cc2)cc1`, the TGI in [1], in assay [2], in assay [4], in assay [5], in [6] and in [7] was greater than 100 µM each time. Further, the TGI in assay [8] and in assay [9] was greater than 100 µM each time.
Turning to `COC(=O)C(Cc1ccc2c(c1)OCO2)(NC(=O)c1ccccc1)P(=O)(OC)OC` (centres undefined), the TGI in assay [1], in assay [2], in [10], in [3], in [4] and in assay [5] was greater than 100 µM each time. Besides, the TGI in [6], in assay [7] and in [8] was greater than 100 µM each time.
As to `CC(=O)Nc1ccc2c3c(cc(O)c2c1)N(C(=O)CCCCCCC(=O)Nc1ccc2c4c(cc(O)c2c1)N(C(=O)OC(C)(C)C)CC4CCl)CC3CCl` (centres undefined), the TGI in assay [2] is 0.374 µM; in [10], 0.0243 µM; in [3] it was 0.238 µM; in assay [4] it was greater than 32.3 µM; in assay [5], 0.804 µM; in assay [6], 23.9 µM. Also, the TGI is greater than 38.5 µM in [7] and 3.35 µM in [8].
As to `C/C(=C\COP(=O)(O)CP(=O)(O)O)CC/C=C(\C)CNc1ccccc1`, the TGI in assay [1], in [2], in [4], in assay [5], in [6] and in assay [7] was greater than 100 µM each time. The TGI in assay [8] and in [9] was greater than 100 µM each time.
Regarding `COc1ccc(C2OC2C(=O)C23CC4CC(CC(C4)C2)C3)cc1` (centres undefined), the TGI in assay [1], in assay [2], in [3], in [4], in assay [5] and in assay [7] was greater than 100 µM in each case. The TGI in [8] and in assay [9] was greater than 100 µM in each case.
As to `Cc1c(CNc2ccc(Cl)c(Cl)c2Cl)cnc2nc(N)nc(N)c12`, the TGI in [1] is 48.3 µM; in assay [2], greater than 100 µM; in [10], greater than 57.9 µM; in assay [3], greater than 100 µM; in [4], greater than 41.3 µM; in [5], greater than 100 µM. Moreover, the TGI in [6] was greater than 52.4 µM; in assay [7], greater than 100 µM; in assay [8], greater than 100 µM.
Regarding `CCCCc1c2c([n+]([O-])c3c1CCCC3)CCCC2`, the TGI in assay [1], in assay [10], in assay [3], in [4], in assay [5] and in [6] was greater than 100 µM each time. Besides, the TGI in assay [7] and in [8] was greater than 100 µM throughout.
Take `Cc1c(S(=O)(=O)/N=C(\NO)Nc2ccc(Cl)cc2)sc2ccc(Cl)cc12`: the TGI was determined as 35.5 µM in [1]; 31.2 µM in assay [2]; 33.8 µM in assay [4]; 41.7 µM in [5]; 31.2 µM in assay [6]; 30.6 µM in [7]. The TGI came to 52.5 µM in assay [8] and 42.7 µM in [9].
As to `CCOC(=O)/C(C#N)=c1/s/c(=C(\O)N/N=C/c2ccc(OC)cc2)c(=N)n1-c1ccccc1`, the TGI in assay [1], in [10], in assay [3], in [4], in assay [5] and in assay [6] was greater than 100 µM throughout. The TGI in [8] is greater than 100 µM.
Take `CCOC(=O)c1nc2ccccc2nc1Oc1ccc(F)cc1`: the TGI in assay [1], in [2], in assay [4], in assay [5], in assay [6] and in assay [7] was greater than 100 µM in each case. The total growth inhibition concentration (TGI) in assay [8] and in assay [9] was greater than 100 µM throughout.
